The results in this text go back to patent publication US20230048132A1, “CYCLIN-DEPENDENT KINASE INHIBITORS” (SPV THERAPEUTICS INC., priority 2018, published 2023).

Assay [1] addresses CDK4-CYCLIND1 (Homo sapiens, UniProt P11802). The assay is described as follows: CDK inhibition assay (microfluidic LabChip, IC50 format).
In assay [2] the target is T1, CDK6-CYCLIND3 (Homo sapiens, UniProt Q00534).
T1 construct: purchased Carna
The assay is described as above. Type of assay: biochemical. The conditions noted are these: Table 4b.

The mark [3] stands for this setting: CDK4 IC50, Table 4b, upper part.
Setting [4] is: upper part, read-out: CDK6 IC50.

Where two headings read alike, the source gives them in different places.

T1 sequence (Q00534 whole entry): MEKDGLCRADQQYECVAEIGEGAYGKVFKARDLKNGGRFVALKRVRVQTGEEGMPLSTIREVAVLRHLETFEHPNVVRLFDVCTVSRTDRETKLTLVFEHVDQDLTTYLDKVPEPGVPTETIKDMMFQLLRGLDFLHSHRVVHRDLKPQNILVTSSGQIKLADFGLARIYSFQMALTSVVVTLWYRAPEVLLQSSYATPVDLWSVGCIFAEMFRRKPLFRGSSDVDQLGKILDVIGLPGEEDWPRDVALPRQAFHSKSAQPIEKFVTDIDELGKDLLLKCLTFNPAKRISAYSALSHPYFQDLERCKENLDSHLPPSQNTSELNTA
T1 sequence (P30281 whole entry partner): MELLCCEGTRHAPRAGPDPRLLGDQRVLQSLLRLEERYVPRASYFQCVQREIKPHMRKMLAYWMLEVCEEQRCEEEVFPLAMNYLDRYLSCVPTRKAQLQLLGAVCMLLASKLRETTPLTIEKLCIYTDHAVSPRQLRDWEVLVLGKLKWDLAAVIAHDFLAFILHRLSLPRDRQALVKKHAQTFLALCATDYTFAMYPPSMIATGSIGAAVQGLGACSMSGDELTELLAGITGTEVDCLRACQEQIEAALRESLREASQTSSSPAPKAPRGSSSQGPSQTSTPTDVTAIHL
Chain of CDK4-CYCLIND1 (P11802 whole entry): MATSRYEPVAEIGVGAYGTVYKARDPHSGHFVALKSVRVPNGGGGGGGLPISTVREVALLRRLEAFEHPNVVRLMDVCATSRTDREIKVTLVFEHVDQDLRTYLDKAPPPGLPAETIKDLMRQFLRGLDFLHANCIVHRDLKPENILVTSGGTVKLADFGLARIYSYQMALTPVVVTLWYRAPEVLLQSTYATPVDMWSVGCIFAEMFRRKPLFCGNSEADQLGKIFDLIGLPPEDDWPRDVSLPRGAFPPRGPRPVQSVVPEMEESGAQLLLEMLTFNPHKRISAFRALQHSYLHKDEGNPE
Chain of CDK4-CYCLIND1 (P24385 whole entry partner): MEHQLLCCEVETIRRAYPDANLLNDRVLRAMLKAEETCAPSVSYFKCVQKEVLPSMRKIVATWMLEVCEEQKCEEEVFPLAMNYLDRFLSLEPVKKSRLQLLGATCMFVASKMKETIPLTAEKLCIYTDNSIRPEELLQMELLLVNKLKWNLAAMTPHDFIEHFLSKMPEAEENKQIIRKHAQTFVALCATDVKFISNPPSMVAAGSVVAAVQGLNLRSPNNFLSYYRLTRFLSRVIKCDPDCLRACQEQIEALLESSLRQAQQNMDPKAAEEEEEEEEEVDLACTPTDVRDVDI

By IC50 is commonly meant the point on the concentration scale where inhibition reaches its midpoint. Consider `O=C1NCCC12Cc1cnc(Nc3ccc(N4CC5(CNC5)C4)nc3)nc1N(C1CCCC1)C2=O` (stereo not drawn) [Example D42, 2-((6-(2,6-diazaspiro[3.3]heptan-2-yl)pyridin-3-yl)amino)-8-cyclopentyl-5,8-dihydro-7H-spiro[pyrido[2,3-d]pyrimidine-6,3′-pyrrolidine]-2′,7-dione], for which the values for the IC50 in assay [1] (setting [3]) and in assay [2] (setting [4]) were 2.72 nM and 6.19 nM, respectively.

Consider `CN(C)[C@H]1CCN(c2ccc(Nc3ncc4c(n3)N(C3CCCC3)C(=O)C3(CCNC3=O)C4)cc2)C1` (stereo partly drawn) [Example D44, 8-cyclopentyl-2-((4-((S)-3-(dimethylamino)pyrrolidin-1-yl)phenyl)amino)-5,8-dihydro-7H-spiro[pyrido[2,3-d]pyrimidine-6,3′-pyrrolidine]-2′,7-dione], for which the IC50 amounted to 12 nM in assay [1] (setting [3]) and 24.6 nM in assay [2] (setting [4]).

With `CN(C)CCOc1ccc(Nc2ncc3c(n2)N(C2CCCC2)C(=O)C2(CC(=O)N(C)C2=O)C3)cn1` (stereo not drawn) [Example D29, 8-cyclopentyl-2-((6-(2-(dimethylamino)ethoxy)pyridin-3-yl)amino)-1′-methyl-5,8-dihydro-7H-spiro[pyrido[2,3-d]pyrimidine-6,3′-pyrrolidine]-2′,5′,7-trione], the IC50 in assay [1] (setting [3]) was found to be 367 nM; in assay [2] (setting [4]) it was 1050 nM.

`COc1cc(Nc2ncc3c(n2)N(C2CCCC2)C(=O)C2(CCNC2=O)C3)ccc1N1CCN(C(C)C)CC1` (stereo not drawn) [Example D37, 8-cyclopentyl-2-((4-(4-isopropylpiperazin-1-yl)-3-methoxyphenyl)amino)-5,8-dihydro-7H-spiro[pyrido[2,3-d]pyrimidine-6,3′-pyrrolidine]-2′,7-dione]: the IC50 in assay [1] (setting [3]) worked out at 3.18 nM; in assay [2] (setting [4]), 8.12 nM.

As for `CC(C)N1CCN(c2ccc(Nc3ncc4c(n3)N(C3CCCC3)C(=O)C3(CC(=O)N(C)C3=O)C4)cc2)CC1` (stereo not drawn) [Example D22, 8-cyclopentyl-2-((4-(4-isopropylpiperazin-1-yl)phenyl)amino)-1′-methyl-5,8-dihydro-7H-spiro[pyrido[2,3-d]pyrimidine-6,3′-pyrrolidine]-2′,5′,7-trione], the IC50 in assay [1] (setting [3]) came out at 28.6 nM; in assay [2] (setting [4]), 129 nM.

For the molecule `CN1C(=O)CC2(Cc3cnc(Nc4ccc(OCCN5CCCC5)nc4)nc3N(C3CCCC3)C2=O)C1=O` (stereo not drawn) [Example D31, 8-cyclopentyl-1′-methyl-2-((6-(2-(pyrrolidin-1-yl)ethoxy)pyridin-3-yl)amino)-5,8-dihydro-7H-spiro[pyrido[2,3-d]pyrimidine-6,3′-pyrrolidine]-2′,5′,7-trione], the IC50 in assay [1] (setting [3]) is 185 nM; in assay [2] (setting [4]), 628 nM.

For the molecule `O=C1NCCC12Cc1cnc(Nc3ccc(N4CCC(N5CCOCC5)CC4)cn3)nc1N(C1CCCC1)C2=O` (stereo not drawn) [Example D39, 8-cyclopentyl-2-((5-(4-morpholinopiperidin-1-yl)pyridin-2-yl)amino)-5,8-dihydro-7H-spiro[pyrido[2,3-d]pyrimidine-6,3′-pyrrolidine]-2′,7-dione], the results for the IC50 in assay [1] (setting [3]) and in assay [2] (setting [4]) were 7.29 nM and 13.3 nM, respectively.

For the molecule `CN1C(=O)CC2(Cc3cnc(Nc4ccc(N5CCNCC5)nc4)nc3N(C3CCCC3)C2=O)C1=O` (stereo not drawn) [Example D24, 8-cyclopentyl-1′-methyl-2-((6-(piperazin-1-yl)pyridin-3-yl)amino)-5,8-dihydro-7H-spiro[pyrido[2,3-d]pyrimidine-6,3′-pyrrolidine]-2′,5′,7-trione], the IC50 in assay [1] (setting [3]) was determined as 127 nM; in assay [2] (setting [4]), 373 nM.

On to `CN1C(=O)CC2(Cc3cnc(Nc4ccc(N5CCNCC5)c(F)c4)nc3N(C3CCCC3)C2=O)C1=O` (stereo not drawn) [Example D27, 8-cyclopentyl-2-((3-fluoro-4-(piperazin-1-yl)phenyl)amino)-1′-methyl-5,8-dihydro-7H-spiro[pyrido[2,3-d]pyrimidine-6,3′-pyrrolidine]-2′,5′,7-trione], for which the IC50 in assay [1] (setting [3]) was 34.8 nM; in assay [2] (setting [4]), 141 nM.

On to `O=C1NCCC12Cc1cnc(Nc3ccc(OCCN4CCCC4)c(F)c3)nc1N(C1CCCC1)C2=O` (stereo not drawn) [Example D16, 8-cyclopentyl-2-((3-fluoro-4-(2-(pyrrolidin-1-yl)ethoxy)phenyl)amino)-5,8-dihydro-7H-spiro[pyrido[2,3-d]pyrimidine-6,3′-pyrrolidine]-2′,7-dione], for which the IC50 in assay [1] (setting [3]) came to 5.25 nM; in assay [2] (setting [4]), 8.81 nM.

`CN(C)CCOc1ccc(Nc2ncc3c(n2)N(C2CCCC2)C(=O)C2(CC(=O)N(C)C2=O)C3)cc1` (stereo not drawn) [Example D28, 8-cyclopentyl-2-((4-(2-(dimethylamino)ethoxy)phenyl)amino)-1′-methyl-5,8-dihydro-7H-spiro[pyrido[2,3-d]pyrimidine-6,3′-pyrrolidine]-2′,5′,7-trione]: the IC50 in assay [1] (setting [3]) turned out to be 155 nM; in assay [2] (setting [4]), 491 nM.

Turning to `CN1CCN(c2ccc(Nc3ncc4c(n3)N(C3CCCC3)C(=O)C3(CCN(C)C3=O)C4)cc2F)CC1` (stereo not drawn) [Example D19, 8-cyclopentyl-2-((3-fluoro-4-(4-methylpiperazin-1-yl)phenyl)amino)-1′-methyl-5,8-dihydro-7H-spiro[pyrido[2,3-d]pyrimidine-6,3′-pyrrolidine]-2′,7-dione], the IC50 came to 33.6 nM in assay [1] (setting [3]) and 97.2 nM in assay [2] (setting [4]).

With `CN(C)[C@H]1CCN(C(=O)c2ccc(Nc3ncc4c(n3)N(C3CCCC3)C(=O)C3(CCNC3=O)C4)cc2F)C1` (stereo partly drawn) [Example D48, 8-cyclopentyl-2-((4-((S)-3-(dimethylamino)pyrrolidine-1-carbonyl)-3-fluorophenyl)amino)-5,8-dihydro-7H-spiro[pyrido[2,3-d]pyrimidine-6,3′-pyrrolidine]-2′,7-dione], the figures for the IC50 in assay [1] (setting [3]) and in assay [2] (setting [4]) were 1.95 nM and 5.53 nM, respectively.

As for `CC(C)N1CCN(c2ccc(Nc3ncc4c(n3)N(C3CCCC3)C(=O)C3(CCNC3=O)C4)cc2)CC1` (stereo not drawn) [Example D5], the figures for the IC50 in assay [1] (setting [3]) and in assay [2] (setting [4]) were 2.64 nM and 5.67 nM, respectively.

`O=C1NCCC12Cc1cnc(Nc3ccc(OCCN4CCCC4)nc3)nc1N(C1CCCC1)C2=O` (stereo not drawn) [Example D15, 8-cyclopentyl-2-((6-(2-(pyrrolidin-1-yl)ethoxy)pyridin-3-yl)amino)-5,8-dihydro-7H-spiro[pyrido[2,3-d]pyrimidine-6,3′-pyrrolidine]-2′,7-dione]: the IC50 was found to be 7.08 nM in assay [1] (setting [3]) and 15.8 nM in assay [2] (setting [4]).

Turning to `CN(C)[C@H]1CCN(C(=O)c2ccc(Nc3ncc4c(n3)N(C3CCCC3)C(=O)C3(CCNC3=O)C4)cc2)C1` (stereo partly drawn) [Example D46, 8-cyclopentyl-2-((4-((S)-3-(dimethylamino)pyrrolidine-1-carbonyl)phenyl)amino)-5,8-dihydro-7H-spiro[pyrido[2,3-d]pyrimidine-6,3′-pyrrolidine]-2′,7-dione], the IC50 in assay [1] (setting [3]) amounted to 3.23 nM; in assay [2] (setting [4]) it was 8.36 nM.

Regarding `CC(C)N1CCN(c2ccc(Nc3ncc4c(n3)N(C3CCCC3)C(=O)C3(CCN(C)C3=O)C4)cn2)CC1` (stereo not drawn) [Example D18, 8-cyclopentyl-2-((6-(4-isopropylpiperazin-1-yl)pyridin-3-yl)amino)-1′-methyl-5,8-dihydro-7H-spiro[pyrido[2,3-d]pyrimidine-6,3′-pyrrolidine]-2′,7-dione], the figures for the IC50 in assay [1] (setting [3]) and in assay [2] (setting [4]) were 53 nM and 166 nM, respectively.

Take `CC(C)N1CCN(c2ccc(Nc3ncc4c(n3)N(C3CCCC3)C(=O)[C@]3(CCNC3=O)C4)cn2)CC1` [Example D151, (S)-8-cyclopentyl-2-((6-(4-isopropylpiperazin-1-yl)pyridin-3-yl)amino)-5,8-dihydro-7H-spiro[pyrido[2,3-d]pyrimidine-6,3′-pyrrolidine]-2′,7-dione]: the IC50 in assay [1] (CDK4 CyclinD1 IC50, Table 4b, lower part, a second value in parentheses for some compounds) worked out at 1.75 nM; in assay [2] (lower part, read-out: CDK6 CyclinD3 IC50), 2.8 nM.
